Data from patent US20170234881A1, “METHODS OF DIAGNOSING AND TREATING CANCER” (INSERM ( INSTITUT NATIONAL DE LA SANTÉ ET DE LA RECHERCHE …, priority 2014, published 2017).

Experiments:
MCF7 cells = test: Cell proliferation assay (BrDU incorporation), MCF7; assay type: cell-based, human; conditions: MCF7 cells treated 24 h, concentration-dependent, level reached
Protocol: FIG. 2. OCDO is a tumor promoter in vitro and in vivo and its inhibition contributes to the anti-tumor effects of Tam and DDA. (A, B) Histograms representing the effect of OCDO or 17β-estrogen (E2) on MCF7 (A) and TS/A (B) cell proliferation after 24 h treatment using a colorimetric immunoassay measuring BrDU incorporation in DNA (C, D) Histogram representing the effect of OCDO on MCF7 (C) and TS/A (D) cell invasion. Data are the mean of three separate experiments (±[…]) Mice were implanted s.c. with MCF7 (E) or TS/A (F) cells and animals (8 per group) were treated s.c. every day starting on the day of implantation with either the solvent vehicle or OCDO (16 μg/kg for MCF7 or 50 μg/kg for TS/A). Animals were monitored for tumour growth twice a week. The data are representative of three independent experiments. The mean tumor volume±s.e.m is shown, *P<0.05, **P<0.01, ***P<0.001 (analysis of variance (ANOVA), Dunnett's post test). […] (I, J, K). Murine […], or human MDA-MB231 (J) or MDA-MB468 (K) cells implanted s.c. into mice (8 per group) and animals were treated s.c. with either the solvent vehicle or OCDO (16 μg/kg for MDA-MB-231 and MDA-MB-468 or 50 μg/kg for E0771). […] At the end of this time, cells were incubated with BrDU for an additional 8 h and then evaluated for proliferation using the ELISA kit, Roche Diagnostic, as indicated by the manufacturer.

E0771 cells = test: Growth of E0771 tumors implanted s.c. into mice; assay type: in vivo; conditions: mouse E0771 tumors, OCDO 50 μg/kg s.c.
Protocol: (§1) FIG. 2. OCDO is a tumor promoter in vitro and in vivo and its inhibition contributes to the anti-tumor effects of Tam and DDA. (A, B) Histograms representing the effect of OCDO or 17β-estrogen (E2) on MCF7 (A) and TS/A (B) cell proliferation after 24 h treatment using a colorimetric immunoassay measuring BrDU incorporation in DNA (C, D) Histogram representing the effect of OCDO on MCF7 (C) and TS/A (D) cell invasion. Data are the mean of three separate experiments (±s.e.m), *P<0.05, **P<0.01, ***P<0.001 (Student's t-test). (E, F) Mice were implanted s.c. with MCF7 (E) or TS/A (F) cells and animals (8 per group) were treated s.c. every day starting on the day of implantation with either the solvent vehicle or OCDO (16 μg/kg for MCF7 or 50 μg/kg for TS/A). Animals were monitored for tumour growth twice a week. […] (G) Mean (±s.e.m) of Ki67 positive cell number determined from IHC staining of MCF7 tumor sections from (E), n=8, *P<0.05 (Student's t-test) using HistoQuant, Pannoramic Viewer (3DHistech). […]
(§2) Exponentially growing MCF7, ShMCF7, E0771, MDA-MB231, MDA-MB468 and TS/A cells were collected, washed twice in PBS and resuspended in PBS. […] Animals were examined daily, and body weights were measured twice per week. In all the experiments, the tumor volume was determined by direct measurement with a caliper and was calculated using the formula (width^2×length)/2. […]

MDA-MB231 cells = test: Growth of MDA-MB231 tumors implanted s.c. into mice; assay type: in vivo; conditions: human MDA-MB231 tumors, OCDO 16 μg/kg s.c.
Protocol: as §1, §2

MCF7 tumors = test: Growth of MCF7 tumors implanted s.c. into mice; assay type: in vivo
Protocol: as §1, §2

SMILES: CC(C)CCC[C@@H](C)[C@H]1CC[C@H]2[C@@H]3CC(=O)[C@@]4(O)C[C@@H](O)CC[C@]4(C)[C@H]3CC[C@]12C [OCDO, 6-oxo-cholestan-3β,5α-diol]
- growth rate (cell proliferation) relative to the control (MCF7 cells): 1.3 fold
- tumor growth (E0771 cells): stimulates the growth
- tumor growth (MDA-MB231 cells): stimulates the growth
- tumor growth compared with the control group (MCF7 tumors; MCF7 tumors in immunodeficient mice, OCDO 16 μg/kg s.c. every day): significantly increased
- proliferative marker Ki67 in tumors compared with control-treated tumors (MCF7 tumors; MCF7 tumors, IHC): increased
